Legend:
Assay in all cases: GRmax, 72 h; higher = less effect;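 also: breast cell lines in 384-well plates, nine doses across a 10^4 range, Dye Drop imaging of viable cells vs DMSO and time-zero plates, GR 0 means no net growth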
[1] = test system: BT549
[2] = test system: EVSAT
[3] = test system: HCC1395
[4] = test system: HCC1569
[5] = test system: HCC38
[6] = test system: MDAMB361
[7] = test system: PDX1258
[8] = test system: PDX1328
[9] = test system: SUM1315
[10] = test system: SUM159
[11] = test system: SUM52PE

SMILES | GRmax, 72 h [1] | GRmax, 72 h [2] | GRmax, 72 h [3] | GRmax, 72 h [4] | GRmax, 72 h [5] | GRmax, 72 h [6] | GRmax, 72 h [7] | GRmax, 72 h [8] | GRmax, 72 h [9] | GRmax, 72 h [10] | GRmax, 72 h [11]
Cc1cc(Nc2ncc(Cl)c(Nc3ccccc3S(=O)(=O)C(C)C)n2)c(OC(C)C)cc1C1CCNCC1 [Ceritinib/LDK378] (max 10 µM) | -0.228 GR | 0.646 GR | -0.627 GR | -0.83 GR | -0.404 GR | -0.991 GR | -0.684 GR | -0.943 GR | -0.765 GR | -0.487 GR | 0.559 GR
N.N.[Cl][Pt][Cl] [Cisplatin] (max 10 µM) | 0.0674 GR |  | -0.222 GR |  | -0.103 GR | -0.35 GR | 0.318 GR | -0.422 GR | 0.203 GR | 0.0896 GR | 
Cc1nc(Nc2ncc(C(=O)Nc3c(C)cccc3Cl)s2)cc(N2CCN(CCO)CC2)n1 [Dasatinib] (max 10 µM) | 0.37 GR | 0.171 GR | -0.337 GR | -0.059 GR | 0.332 GR | 0.0805 GR | -0.134 GR | -0.401 GR | -0.237 GR | 0.732 GR | -0.322 GR
COc1cccc2c1C(=O)c1c(O)c3c(c(O)c1C2=O)C[C@@](O)(C(=O)CO)C[C@@H]3O[C@H]1C[C@H](N)[C@H](O)[C@H](C)O1 [Doxorubicin] (max 3.162 µM) | -0.331 GR | -0.192 GR | -0.417 GR | -0.132 GR | -0.406 GR | -0.722 GR | -0.493 GR | -0.739 GR | -0.0635 GR | -0.361 GR | -0.0432 GR
COc1cc([C@@H]2c3cc4c(cc3[C@@H](O[C@@H]3O[C@@H]5CO[C@@H](C)O[C@H]5[C@H](O)[C@H]3O)[C@H]3COC(=O)[C@H]23)OCO4)cc(OC)c1O [Etoposide] (max 10 µM) | -0.195 GR |  | -0.225 GR |  | -0.424 GR | -0.517 GR | -0.181 GR | -0.281 GR | 0.0416 GR | -0.279 GR | 
CO[C@H]1C[C@@H]2CC[C@@H](C)[C@@](O)(O2)C(=O)C(=O)N2CCCC[C@H]2C(=O)O[C@H]([C@H](C)C[C@@H]2CC[C@@H](OCCO)[C@H](OC)C2)CC(=O)[C@H](C)/C=C(\C)[C@@H](O)[C@@H](OC)C(=O)[C@H](C)C[C@H](C)/C=C/C=C/C=C/1C [Everolimus] (max 10 µM) | 0.52 GR | 0.354 GR | 0.404 GR | 0.555 GR | 0.473 GR | 0.0574 GR | 0.631 GR | 0.371 GR | 0.402 GR | 0.866 GR | 0.553 GR
CCC(=O)Nc1ccc(C(=O)Nc2ccc(Nc3ncc4c(n3)N(C)c3ccc(C)cc3C(=O)N4C)cc2)cc1 [FMF-03-145-1] | -0.0339 GR | -0.139 GR | -0.151 GR | -0.125 GR | -0.376 GR | 0.286 GR | -0.267 GR | 0.128 GR | -0.274 GR | -0.12 GR | 0.0118 GR
COc1cc(N2CCN(C)CC2)ccc1Nc1ncc2c(n1)N(C)c1ccccc1C(=O)N2CC(F)(F)F [FMF-03-146-1] | 0.839 GR | 0.994 GR | 0.64 GR | 1.03 GR | 0.9 GR | 0.362 GR | 1.2 GR | 0.893 GR | 0.824 GR | 0.898 GR | 1.04 GR
CC[C@@]1(O)C(=O)OCc2c1cc1n(c2=O)Cc2cc3c(CN(C)C)c(O)ccc3nc2-1 [Topotecan] (max 10 µM) | -0.241 GR |  | -0.584 GR |  | -0.504 GR | -0.762 GR | -0.457 GR | -0.913 GR | -0.332 GR | -0.454 GR | 

Reference: the supplement of paper PMC9663587
